Test results taken from US20030170694A1, “Stabilized nucleic acids in gene and drug discovery and methods of use” (priority 2001, published 2003).
Values after ≈ are worked out from the molar mass of the structure shown. Like-named read-outs stand apart in the source and are kept apart here. Positions of bridges follow the written chain, without caps; N, C: chain ends. Non-standard residues stand in square brackets, D forms with d. Residues, ends and D or L forms follow the SMILES beside them. *: point of attachment. Ileψ(thiazoline)Cys = CC[C@H](C)[C@H](N)C1=N[C@H](C(=O)*)CS1; dOrn = NCCC[C@@H](N)C(=O)O

Experiments:
[1] = test system: E. coli cells transcribing antisense RNA to rplL and rplJ (AS-rplL/J); assay: microbe, parasite or virus in culture; assay type: cell-based; details: for IC50: Escherichia coli; for Fold Increase: IC50 without IPTG vs IC50 with 400 μM IPTG; for Sensitivity (increased sensitivity observed in the presence of IPTG): statistically significant decrease in IC50 in the presence of inducer
Experimental: Antibiotics of various chemical classes and modes of action were purchased from Sigma Chemicals (St. Louis, Mo.). Stock solutions were prepared by dissolving each antibiotic in an appropriate aqueous solution based on information provided by the manufacturer. The final working solution of each antibiotic contained no more than 0.2% (w/v) of any organic solvent. To determine their potency against a bacterial strain engineered for transcription of an antisense comprising a nucleotide sequence complementary to a proliferation-required 50S ribosomal protein, each antibiotic was serially diluted two-or three-fold in growth medium supplemented with the appropriate antibiotic for maintenance of the antisense construct. At least ten dilutions were prepared for each antibiotic. 25 μL aliquots of each dilution were transferred to discrete wells of a 384-well microplate (the assay plate) using a multi-channel pipette. Quadruplicate wells were used for each dilution of an antibiotic under each treatment condition (plus and minus inducer). Each assay plate contained twenty wells for cell growth controls (growth medium replacing antibiotic), ten wells for each treatment (plus and minus inducer, in this example IPTG). Assay plates were usually divided into the two treatments: half the plate containing induced cells and an appropriate concentrations of inducer (in this example IPTG) to maintain the state of induction, the other half containing non-induced cells in the absence of IPTG.
Cells for the assay were prepared as follows. Bacterial cells containing a construct, from which transcription of antisense nucleic acid comprising a nucleotide sequence complementary to rplL and rplJ (AS-rplL/J), which encode proliferation-required 50S ribosomal subunit proteins, is inducible in the presence of IPTG, were grown into exponential growth (OD600 0.2 to 0.3) and then diluted 1:100 into fresh medium containing either 400 μM or 0 μM inducer (IPTG). These cultures were incubated at 37° C. for 2.5 hr. After a 2.5 hr incubation, induced and non-induced cells were respectively diluted into an assay medium at a final OD600 value of 0.0004. The medium contained an appropriate concentration of the antibiotic for the maintenance of the antisense construct. In addition, the medium used to dilute induced cells was supplemented with 800 μM IPTG so that addition to the assay plate would result in a final IPTG concentration of 400 μM. Induced and non-induced cell suspensions were dispensed (25 μl/well) into the appropriate wells of the assay plate as discussed previously. The plate was then loaded into a plate reader, incubated at constant temperature, and cell growth was monitored in each well by the measurement of light scattering at 595 nm. Growth was monitored every 5 minutes until the cell culture attained a stationary growth phase. For each concentration of antibiotic, a percentage inhibition of growth was calculated at the time point corresponding to mid-exponential growth for the associated control wells (no antibiotic, plus or minus IPTG). For each antibiotic and condition (plus or minus IPTG), a plot of percent inhibition versus log of antibiotic concentration was generated and the IC50 determined.

[2] = test system: E. coli transformed with IPTG-inducible antisense clones; assay: Cell-based assay of antibiotic sensitivity in E. coli transcribing non-stabilized antisense RNA
From the text: The effectiveness of the above cell-based assays in which the level or activity of a gene product required for proliferation was reduced was validated using constructs transcribing a non-stabilized antisense RNA to the proliferation required E. coli genes rplL, rplJ and rplW encoding ribosomal proteins L7/L12, L10 and L23 respectively. These proteins are essential components of the protein synthesis apparatus of the cell and as such are required for proliferation. Constructs transcribing antisense RNA to several other genes (elaD, visC, yohH, and atpE/B), the products of which are not involved in protein synthesis were used for comparison.
First, pLex5BA (Krause et al., J. Mol. Biol. 274: 365 (1997), the disclosure of which is incorporated herein by reference in its entirety) vectors containing antisense constructs to either rplW or to elaD were introduced into separate E. coli cell populations. […]
The cell populations containing vectors producing AS-elaD or AS-rplW were exposed to a range of IPTG concentrations in liquid medium to obtain the growth inhibitory dose curve for each clone (FIG. 5). First, seed cultures were grown to a particular turbidity measured by the optical density (OD) of the growth solution. […] The cells were grown for up to 15 hours and the extent of growth was determined by measuring the optical density of the cultures at 600 nm. […]

CC[C@H](C)[C@H](N)C1=N[C@H](C(=O)N[C@@H](CC(C)C)C(=O)N[C@H](CCC(=O)O)C(=O)N[C@H](C(=O)N[C@H]2CCCCNC(=O)[C@H](CC(N)=O)NC(=O)[C@@H](CC(=O)O)NC(=O)[C@H](Cc3cnc[nH]3)NC(=O)[C@@H](Cc3ccccc3)NC(=O)[C@H]([C@@H](C)CC)NC(=O)[C@@H](CCCN)NC2=O)[C@@H](C)CC)CS1 [Bacitracin] ({Ileψ(thiazoline)Cys}-L[dE]IK[dOrn]I[dF]H[dD]N; lactam 4-C) was tested, and the IC50 ([1]; read-out: IC50 (+IPTG)) was 4.68 µg/mL (≈ 3.29 µM), the IC50 ([1]; read-out: IC50 (−IPTG)) was 4.08 µg/mL (≈ 2.87 µM) and the “Fold Increase” value [1] was 1. The “Sensitivity (increased sensitivity observed in the presence of IPTG)” value [1] was “No”.

CO/N=C(\C(=O)N[C@@H]1C(=O)N2C(C(=O)O)=C(COC(C)=O)CS[C@H]12)c1csc(N)n1 [Cefotaxime] was tested, and the “Fold Increase” value [1] was 1 and the “Sensitivity (increased sensitivity observed in the presence of IPTG)” value [1] was “No”.

For CO[C@@]1(NC(=O)Cc2cccs2)C(=O)N2C(C(=O)O)=C(COC(N)=O)CS[C@@H]21 [Cefoxitin], the “Fold Increase” value [1] was 1 and the “Sensitivity (increased sensitivity observed in the presence of IPTG)” value [1] was “No”.

O=C(N[C@H](CO)[C@H](O)c1ccc([N+](=O)[O-])cc1)C(Cl)Cl [Chloramphenicol] was tested, and the “Fold Increase” value [1] was 307 and the “Sensitivity (increased sensitivity observed in the presence of IPTG)” value [1] was “Yes”.

With C[C@H]1c2cccc(O)c2C(=O)C2=C(O)[C@]3(O)C(=O)C(C(N)=O)=C(O)[C@@H](N(C)C)[C@@H]3[C@@H](O)[C@@H]21 [Doxycycline] the “Fold Increase” value [1] was 15.

With CC[C@H]1OC(=O)[C@H](C)[C@@H](O[C@H]2C[C@@](C)(OC)[C@@H](O)[C@H](C)O2)[C@H](C)[C@@H](O[C@@H]2O[C@H](C)C[C@H](N(C)C)[C@H]2O)[C@](C)(O)C[C@@H](C)C(=O)[C@H](C)[C@@H](O)[C@]1(C)O [Erythromycin] the “sensitivity of clones to the antibiotic” value ([2]; clones transcribing antisense to protein synthesis genes (L7/L12 & L10, L7/L12, L22, L18, rRNA, Elongation Factor G), initial experiments) was “increased sensitivity”, the “Fold Increase” value [1] was 40 and the “Sensitivity (increased sensitivity observed in the presence of IPTG)” value [1] was “Yes”.

In the case of CC(=O)O[C@H]1C[C@@]2(C)[C@@H](C[C@@H](O)[C@H]3[C@@]4(C)CC[C@@H](O)[C@@H](C)[C@@H]4CC[C@@]32C)/C1=C(\CCC=C(C)C)C(=O)O [Fusidic acid], the “Fold Increase” value [1] is reported as 94 and the “Sensitivity (increased sensitivity observed in the presence of IPTG)” value [1] is reported as “Yes”.

With CCC[C@@H]1C[C@@H](C(=O)N[C@@H]([C@H]2O[C@H](SC)[C@H](O)[C@@H](O)[C@H]2O)[C@@H](C)O)N(C)C1 [Lincomycin] the “Fold Increase” value [1] was 145 and the “Sensitivity (increased sensitivity observed in the presence of IPTG)” value [1] was “Yes”.

For CN(C)c1ccc(O)c2c1C[C@H]1C[C@H]3[C@H](N(C)C)C(O)=C(C(N)=O)C(=O)[C@@]3(O)C(O)=C1C2=O [Minocycline], the “Fold Increase” value [1] was 172.

With CCn1cc(C(=O)O)c(=O)c2ccc(C)nc21 [Nalidixic acid] the “sensitivity of clone to the antibiotic” value ([2]; clone transcribing antisense to rplL and rplJ (AS-rplL/J)) was “does not show increased sensitivity”, the “Fold Increase” value [1] was 1 and the “Sensitivity (increased sensitivity observed in the presence of IPTG)” value [1] was “No”.

In the case of CC1COc2c(N3CCN(C)CC3)c(F)cc3c(=O)c(C(=O)O)cn1c23 (centres unmarked) [Ofloxacin], the “Fold Increase” value [1] is reported as 1.

For CN[C@@H]1[C@H](O)[C@H](NC)[C@H]2O[C@@]3(O)C(=O)C[C@@H](C)O[C@H]3O[C@@H]2[C@H]1O [Spectinomycin], the IC50 ([1]; read-out: IC50 (+IPTG)) was less than 0.156 µg/mL and the “Sensitivity (increased sensitivity observed in the presence of IPTG)” value [1] was “Yes”.

For [H]/N=C(/N)N[C@H]1[C@H](O)[C@@H](O)[C@H](O[C@@H]2O[C@@H](C)[C@](O)(C=O)[C@H]2O[C@@H]2O[C@@H](CO)[C@H](O)[C@@H](O)[C@@H]2NC)[C@@H](N/C(N)=N\[H])[C@@H]1O [Streptomycin], the “Fold Increase” value [1] was 70 and the “Sensitivity (increased sensitivity observed in the presence of IPTG)” value [1] was “Yes”.

For CN(C)[C@@H]1C(O)=C(C(N)=O)C(=O)[C@@]2(O)C(O)=C3C(=O)c4c(O)cccc4[C@@](C)(O)[C@H]3C[C@@H]12 [Tetracycline], the “Fold Increase” value [1] was 109.

In the case of NC[C@H]1O[C@H](O[C@H]2[C@H](O)[C@@H](O[C@H]3O[C@H](CO)[C@@H](O)[C@H](N)[C@H]3O)[C@H](N)C[C@@H]2N)[C@H](N)C[C@@H]1O [Tobramycin], the “Fold Increase” value [1] is reported as 51 and the “Sensitivity (increased sensitivity observed in the presence of IPTG)” value [1] is reported as “Yes”.

For CN[C@H](CC(C)C)C(=O)N[C@H]1C(=O)N[C@@H](CC(N)=O)C(=O)N[C@H]2C(=O)N[C@H]3C(=O)N[C@H](C(=O)N[C@H](C(=O)O)c4cc(O)cc(O)c4-c4cc3ccc4O)[C@H](O)c3ccc(c(Cl)c3)Oc3cc2cc(c3O[C@@H]2O[C@H](CO)[C@@H](O)[C@H](O)[C@H]2O[C@H]2C[C@](C)(N)[C@H](O)[C@H](C)O2)Oc2ccc(cc2Cl)[C@H]1O [Vancomycin], the IC50 ([1]; read-out: IC50 (+IPTG)) was 72.5 µg/mL (≈ 50.1 µM), the IC50 ([1]; read-out: IC50 (−IPTG)) was 145 µg/mL (≈ 100 µM) and the “Fold Increase” value [1] was 2. For the same molecule, the “Sensitivity (increased sensitivity observed in the presence of IPTG)” value [1] was “No”.

For Gentamicin, the “Fold Increase” value [1] was 141, the “IC50 (+IPTG)” value ([1]; induced AS-rplL/J cells, 400 μM IPTG) was 0.01919 µg/mL and the “IC50 (−IPTG)” value ([1]; non-induced AS-rplL/J cells, 0 μM IPTG) was 2.715 µg/mL. For the same molecule, the “Sensitivity (increased sensitivity observed in the presence of IPTG)” value [1] was “Yes”.
